According to patent US11291663B2, “Methods of treating cancer with farnesyltransferase inhibitors” (Kura Oncology, Inc., priority 2017, dated 2022):

What was measured:
Type in all cases: in vivo, human
[1] = tested on: relapsed/refractory AML; assay: Study AMLCG 1999, AraC based chemotherapy by CXCR4/CXCR2 expression ratio; conditions: relapsed/refractory AML subjects
Description: FIG. 11B. Progression free survival (PFS) probabilities over time (days) for relapsed/refractory AML subjects in study AMLCG 1999 receiving AraC based chemotherapy with relative CXCR4/CXCR2 expression ratios.

[2] = tested on: elderly patients with newly diagnosed, de novo, or secondary AML; assay: Ph3 study AML301, tipifarnib versus BSC
Description: (§1) Clinical studies with tipifarnib were performed in newly diagnosed elderly patients with poor risk AML (CTEP-20, Phase 2) and relapsed and refractory AML (INT-17, Phase 2). Patient selection in these studies was not based on genetic markers. Anecdotal evidence of tipifarnib single agent activity was reported. […] Median OS in the overall study was 107 days for the Tipifarnib group and 109 days for the BSC group in AML301.
AML patients with low percentage of circulating blood blasts (<1 and <10%) and high percentage of bone marrow blasts (>40%) receive clinical benefit from tipifarnib treatment in terms of progression free survival (PFS, CTEP20) or survival (AML301). […] AML301 patients N=82 (18% of study size), HR=0.58, 109 (BSC) vs 201 (tipifarnib) days, P=0.019.
FIGS. 3A-H show results from a clinical tipifarnib trial for subsets of elderly or frail AML patients (AML-301) with varying degrees of neutropenia. […] FIGS. 3B-3F show survival probabilities in AML patient subsets with WBCs>2.1×10^9 cells/L and ANC<1.2×10^9 cells/L (FIG. 3B), ANC<1.0 (FIG. 3C), ANC<0.8 (FIG. 3D), ANC<0.6 (FIG. 3E) and ANC<0.4 (FIG. 3F).

[3] = tested on: newly diagnosed elderly patients with poor risk AML; assay: Phase 2 study CTEP-20 of tipifarnib
Description: as §1
FIG. 7. (A) PFS probabilities of previously untreated elderly or unfit AML subjects with a high CXCR4/CXCR2 ratio versus the rest of the patients enrolled in study CTEP-20. Outcome and expression data are available for 34 study subjects. Median survival of subjects with a bone marrow CXCR4/CXCR2 expression ratio in the upper quartile was 406 days versus 67 days in quartiles 1st-3rd, HR=0.44, p=0.09. Median overall PFS was 84 days. (B) Survival probabilities of previously untreated elderly or unfit AML subjects with a high CXCR4/CXCR2 ratio versus the rest of the patients in study CTEP-20. Median survival of subjects with a bone marrow CXCR4/CXCR2 expression ratio in the upper quartile was 728 days versus 179 days in quartiles 1st-3rd, HR=0.26, p=0.07. Median overall survival was 233 days.

[4] = tested on: relapsed and refractory AML; assay: Phase 2 study INT-17 of tipifarnib
Description: as §1
FIGS. 6A and 6B show graphs illustrating results from a tipifarnib trial with relapsed or refractory AML subjects (INT-17 R/R AML). […] The bone marrow of refractory AML subjects was generally found to express low levels of CXCL12. A small subset of subjects (˜15%) presented high levels of CXCR4, bone marrow homing of tumor cells and sensitivity to tipifarnib. FIG. 6A illustrates relative counts of blood blasts in relapsed or refractory AML patients stratified based on CXCR4 expression levels. […] FIG. 6B illustrates PFS probabilities for relapsed or refractory AML subjects stratified based on CXCR4 expression levels. AML subjects overexpressing CXCR4 (N=8; median PFS=143 days) had better clinical outcomes than AML subjects with relatively lower levels of CXCR4 expression (N=49; median PFS=29 days).
CXCR4/CXCR2 ratio data were available for 57 subjects who experienced an overall survival of 87 days. […]

[5] = tested on: relapsed/refractory PTCL; assay: Tipifarnib in relapsed/refractory PTCL patients with available GEP; conditions: of 13 highly advanced relapsed/refractory PTCL patients with available GEP
Description: (§2) CXCL12 expression alone or as a ratio of the expression to its receptor CXCR4 predicted complete response to tipifarnib treatment (p=0.08, p=0.001) (FIG. 20A). CXCL12 and the CXCL12/CXCR4 ratio also were predictive of 2 partial responses (PR) observed in 13 highly advanced relapsed/refractory PTCL patients with available GEP (p=0.009, p=0.0007) (FIG. 20B). Four objective responses and 1 tumor lysis syndrome were reported in 17 tipifarnib-treated CMML subjects with available pre-treatment BM gene expression data (FIG. 20C). CXCL12 expression (p=0.07) and the CXCL12/CXCR4 ratio (p=0.03) were predictive of those events (FIG. 20C). Only 3 CRs were reported in 58 patients with available BM gene expression data in study INT-17.

[6] = tested on: relapsed/refractory CMML; assay: Tipifarnib-treated CMML subjects (study TIP-004); conditions: of 17 CMML subjects with available pre-treatment BM gene expression data
Description: FIG. 10B. Progression free survival (PFS) probabilities over time (days) for relapsed/refractory CMML subjects in study TIP-004 receiving tipifarnib with relative CXCR4/CXCR2 expression ratios. CMML patients having higher CXCR4/CXCR2 expression ratios responded better to tipifarnib treatment than those having lower CXCR4/CXCR2 expression ratios.
as §2

Nc1ccn([C@@H]2O[C@H](CO)[C@@H](O)[C@@H]2O)c(=O)n1 [AraC]
PFS response of patients with higher versus lower CXCR4/CXCR2 expression ratios [1]: no differently

Cn1cncc1[C@@](N)(c1ccc(Cl)cc1)c1ccc2c(c1)c(-c1cccc(Cl)c1)cc(=O)n2C [tipifarnib]
hazard ratio, tipifarnib versus reference therapy ([2]; ANC/WBC<0.3 and marrow blasts >60%, N=110, P=0.08): 0.67 | hazard ratio, tipifarnib versus BSC ([2]; ANC/WBC<0.4, WBC>2, platelets >20, N=135, P=0.046): 0.7 | survival probability versus Best Supportive Care ([2]; no marrow homing subset): no effect | HR, tipifarnib versus BSC ([2]; subset with bone marrow blasts >40% and peripheral blood blasts <10%, N=82, P=0.019): 0.58 | Median survival (PFS panel A) ([3]; CXCR4/CXCR2 expression ratio quartiles 1st-3rd): 67 days | best responses of progression of disease (PD), number of patients ([3]; of 34 pts with available BM gene expression data): 13 | HR for survival, upper quartile versus quartiles 1st-3rd of CXCR4/CXCR2 ratio ([3]; p=0.07): 0.26 | HR for PFS, upper quartile versus quartiles 1st-3rd of CXCR4/CXCR2 ratio ([3]; p=0.09): 0.44 | CRs, number of patients ([4]; of 58 patients with available BM gene expression data): 3 | HR, 5th quintile of CXCR4/CXCR2 ratio versus rest of the subjects ([4]; p=0.04): 0.52 | partial responses (PR), number of patients [5]: 2 | tumor lysis syndrome, number of subjects [6]: 1
